Consider 26 molecules from US20240140931A1, “TRICYCLIC COMPOUNDS AND USES THEREOF” (HUTCHMED LIMITED, priority 2021, published 2024).

Some results are limits rather than exact numbers.

The target of assay [1] is Human full-length SHP2 recombinant protein (Homo sapiens (Human), UniProt Q06124). The assay is described as follows: Assay of full-length SHP2 phosphatase activity. Conditions: DiFMUP substrate, with activating peptide. It counts as biochemical. The procedure:
Example 2 Assay of Full-Length SHP2 Phosphatase Activity
1. Reagents and Materials • Human full-length SHP2 recombinant protein: BPS Bioscience, Cat #79018; • SHP2 substrate DiFMUP (1 mM): BPS Bioscience, Cat #79769; • SHP2 activating peptide (100 μM): BPS Bioscience, Cat #79319-2; • DTT: Merck, Cat #DTT-RO; • 384-well plate: Corning, Cat #3575; • 96-well plate: Thermo Fisher Scientific, Cat #249952; • Instrument: EnVision 2104, PerkinElmer.
2. Preparation of Reaction Solutions
The test compound was dissolved in DMSO and diluted with DMSO to 100.0 μM, and the compound was further 3-fold diluted with DMSO to: 100.00, 33.33, 11.11, 3.70, 1.23, 0.41, 0.14 and 0.05 μM.
3. Experimental Steps • To the corresponding wells of the 384-well plate was added 2.5 μL of 4× test compound or 2.5 μL of 4% DMSO solution, and centrifugation was carried out at 1000 rpm for 30 seconds. • To the test compound well and positive control well was added 2.5 μL of 4× mixed solution of SHP2 enzyme/activating peptide while to the negative control well was added 2.5 μL of 1× enzymatic reaction buffer; centrifugation was carried out at 1000 rpm for 30 seconds and incubation was carried out at room temperature for 30 minutes. • To each well was added 5 μL of 2×DiFMUP substrate to initiate the enzymatic reaction, then the plate was transiently oscillated and centrifuged at 1000 rpm for 30 seconds, and the 384-well plate was sealed with a sealing membrane and incubated at 25° C. on a low-speed shaker (100 rpm) in the dark for 60 minutes. • The fluorescence value (relative fluorescence units, RFU) of each well was detected on EnVision2104 (excitation: 355 nm, emission: 460 nm).
wherein • the RFU of compound well refers to the fluorescence reading at 460 nm of the well containing the test compounds; • the RFU of negative control well refers to the fluorescence reading at 460 nm of the background well containing 1% DMSO and the enzymatic reaction buffer; • the RFU of positive control well refers to the fluorescence reading at 460 nm of the well containing 1% DMSO and the mixed solution of SHP2 enzyme/activating peptide.
(§1) IC50 values were calculated following formula 205: y=A+((B−A)/(1+((C/X)^D))), by using the XL-Fit 5.0 software.

Assay [2] concerns pERK1/2 (Thr202/Tyr204) in Miapaca2 cells. The assay is described as follows: Assay of intracellular pERK1/2 (Thr202/Tyr204) phosphorylation. It counts as cell-based. The procedure:
Example 3 Assay of Intracellular pERK1/2 (Thr202/Tyr204) Phosphorylation
1. Reagents and Materials • pERK1/2 (Thr202/Tyr204) HTRF kit: Cisbio, Cat #64ERKPEH; • Cell line: Miapaca2, ATCC, CRL-1420; • OptiPlate™-384-well plate: PerkinElmer, Cat #6007299; • 96-well plate: Corning, Cat #353072; • Instrument: EnVision2104, PerkinElmer.
2. Preparation of Reaction Solutions • The test compound was dissolved in DMSO and diluted with DMSO to 600.0 μM, and the compound was further 3-fold diluted with DMSO to: 600.0, 200.0, 66.7, 22.2, 7.4, 2.5, 0.82 and 0.27 μM. Then 10 μL of the compound at different dilution concentrations was added to 190 μL of a DMEM medium to prepare a 10× test compound, wherein DMSO was at the concentration of 5% (DMSO was at the final concentration of 0.5%). • 1× cell lysis buffer: 4× cell lysis stock solution (provided by the kit) was diluted 4-fold with deionized water, and then 1% 100× blocking stock solution (provided by the kit) was added thereto. • pERK1/2 detection solution (prepared just before use): the pERK1/2 d2 antibody (provided by the kit) and pERK1/2 Cryptate antibody (provided by the kit) were diluted with the detection solution (provided by the kit) at a ratio of 1:1:38.
3. Experimental Steps • Miapaca2 cells were inoculated into a 96-well plate at a density of 10000 cells/well at 90 μL/well and cultured in a cell incubator at 5% CO2 and 37° C. overnight. • 10 μL of 10× test compound was added to the 90 μL cell culture 96-well plate; to the cell positive control well was added 10 μL of 5% DMSO culture solution; and the plate was cultured in a cell incubator at 5% CO2 and 37° C. for 2 hours. • The medium in the 96-well plate was removed; 50 μL of 1× cell lysis buffer was added to each well; the plate was placed in a microplate shaker; and lysis under shaking was carried out at 900 rpm at room temperature for 1 hour. • 16 μL of the lysis buffer in the 96-well plate was taken and transferred to a 384-well plate, and centrifugation was carried out at 1000 rpm for 30 seconds; then 4 μL of pERK1/2 detection solution was added to each well and centrifugation was carried out at 1000 rpm for 30 seconds; and the 384-well plate was sealed with a sealing membrane and incubated at 25° C. on a low-speed shaker (100 rpm) in the dark for 2 hours. • The fluorescence value (relative fluorescence units, RFU) of each well was detected on EnVision2104 (emission 1: 665 nm, emission 2: 615 nm).
wherein • the fluorescence ratio of compound well refers to the fluorescence ratio of the well containing the test compounds; • the fluorescence ratio of negative control well refers to the fluorescence ratio of the background containing the cell lysis buffer and no Miapaca2 cells; • the fluorescence ratio of positive control well refers to the fluorescence ratio of the well containing 0.5% DMSO and Miapaca2 cells.
as §1

Where [3] appears, read: Homo sapiens, MIA PaCa-2, 2 h, pERK1/2 (Thr202/Tyr204) HTRF.
Setting [4] is: pERK1/2 (Thr202/Tyr204) HTRF, 2 hours.

Chain of Human full-length SHP2 recombinant protein (Q06124 whole entry): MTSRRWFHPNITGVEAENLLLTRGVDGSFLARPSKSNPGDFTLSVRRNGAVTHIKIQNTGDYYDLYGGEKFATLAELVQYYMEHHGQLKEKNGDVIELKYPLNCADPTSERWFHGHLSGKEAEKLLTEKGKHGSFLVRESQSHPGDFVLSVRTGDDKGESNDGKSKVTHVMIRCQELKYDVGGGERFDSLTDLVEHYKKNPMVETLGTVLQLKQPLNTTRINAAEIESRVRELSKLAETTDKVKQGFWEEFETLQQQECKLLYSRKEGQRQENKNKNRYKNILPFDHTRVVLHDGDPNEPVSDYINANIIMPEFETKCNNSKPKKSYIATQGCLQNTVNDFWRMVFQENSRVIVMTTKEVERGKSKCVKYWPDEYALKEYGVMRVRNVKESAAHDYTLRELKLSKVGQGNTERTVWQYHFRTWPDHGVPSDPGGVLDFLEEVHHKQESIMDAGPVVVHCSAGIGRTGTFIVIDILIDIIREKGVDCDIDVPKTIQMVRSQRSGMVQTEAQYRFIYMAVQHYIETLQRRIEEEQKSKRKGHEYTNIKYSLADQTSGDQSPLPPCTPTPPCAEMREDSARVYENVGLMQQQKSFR

As usually defined, the IC50 is the midpoint of a concentration-inhibition curve. For the molecule `C#Cc1ccc2c(c1)[C@@H](N)C1(CCN(c3cc(=O)n(-c4cccc(Cl)c4)c(C)n3)CC1)C2` [Compound 17], the results for the IC50 in assay [1] and in assay [2] (setting [3]) were 18 nM and 203 nM, respectively.

Take `C#Cc1ccc2c(c1)[C@@H](N)C1(CCN(c3cc(=O)n(-c4c(F)cccc4Cl)c(C)n3)CC1)C2` [Compound 68]: the values for the IC50 in assay [1] and in assay [2] (setting [3]) were 130 nM and 510 nM, respectively.

For `C#Cc1ccc2c(c1)[C@@H](N)C1(CCN(c3cc(=O)n(-c4ccc(F)cc4F)c(C)n3)CC1)C2` [Compound 41], the IC50 in assay [1] turned out to be 21 nM; in assay [2] (setting [3]) it was 115 nM.

As to `COCC#Cc1ccc2c(c1)[C@@H](N)C1(CCN(c3cc(=O)n(-c4ccc(F)c(Cl)c4Cl)c(C)n3)CC1)C2` (atropisomer, axis not shown) [Compound 125], the IC50 in assay [1] was 96 nM; in assay [2] (setting [4]), 175 nM.

On to `COCC#Cc1ccc2c(c1)[C@@H](N)C1(CCN(c3ncc(-c4cn(C)c5ncccc45)c4nccn34)CC1)C2` [Compound 120], for which the results for the IC50 in assay [1] and in assay [2] (setting [3]) were 45 nM and 385 nM, respectively.

For `COCC#Cc1ccc2c(c1)[C@@H](N)C1(CCN(c3cc(=O)n(-c4ccc(F)c(OC)c4F)c(C)n3)CC1)C2` [Compound 82], the IC50 was found to be 2 nM in assay [1] and 43 nM in assay [2] (setting [3]).

`COCC#Cc1ccc2c(c1)[C@@H](N)C1(CCN(c3cc(=O)n(-c4cccc(OC)c4Cl)c(C)n3)CC1)C2` [Compound 104]: the IC50 is 4 nM in assay [1] and 40 nM in assay [2] (setting [3]).

In the case of `CNC(=O)C#Cc1ccc2c(c1)[C@@H](N)C1(CCN(c3cc(=O)n(-c4ccc(F)c(OC)c4Cl)c(C)n3)CC1)C2` (atropisomer, axis not shown) [Compound 200], the IC50 was 25 nM in assay [1] and 512 nM in assay [2] (setting [4]).

`C#Cc1ccc2c(c1)[C@@H](N)C1(CCN(c3cc(=O)n(-c4cccc(Cl)c4Cl)c(C)n3)CC1)C2` (atropisomer, axis not shown) [Compound 12, (S)-6-(1-amino-6-ethynyl-1,3-dihydrospiro[indene-2,4′-piperidin]-1′-yl)-3-(2,3-dichlorophenyl)-2-methylpyrimidin-4(3H)-one]: the IC50 in assay [1] stood at 1 nM; in assay [2] (Homo sapiens, MIA PaCa-2, pERK1/2 (Thr202/Tyr204) HTRF, 2 hours) it was 7 nM.

Turning to `Cc1c(N2CCC3(CC2)Cc2ccc(C#CCN(C)C)cc2[C@H]3N)nc(C)n(-c2cccc(Cl)c2Cl)c1=O` (atropisomer, axis not shown) [Compound 50], the results for the IC50 in assay [1] and in assay [2] (setting [4]) were 15 nM and 318 nM, respectively.

For `Nc1nccc(Sc2cnc(N3CCC4(CC3)Cc3ccc(C#CCO)cc3[C@H]4N)n3ccnc23)c1Cl` [Compound 76], the IC50 in assay [1] was 2 nM; in assay [2] (setting [3]), 4 nM.

In the case of `C#Cc1ccc2c(c1)[C@@H](N)C1(CCN(c3cnc(Sc4ccnc(N)c4Cl)c(N)n3)CC1)C2` [Compound 95], the IC50 was 3 nM in assay [1] and 2 nM in assay [2] (setting [3]).

Regarding `C#Cc1ccc2c(c1)[C@@H](N)C1(CCN(c3cc(=O)n(-c4ccccc4Cl)c(C)n3)CC1)C2` [Compound 42, (S)-6-(1-amino-6-ethynyl-1,3-dihydrospiro[indene-2,4′-piperidin]-1′-yl)-3-(2-chlorophenyl)-2-methylpyrimidin-4(3H)-one], the IC50 in assay [1] came to 6 nM; in assay [2] (setting [3]) it was 133 nM.

Turning to `CNC(=O)C#Cc1ccc2c(c1)[C@@H](N)C1(CCN(c3cc(=O)n(-c4cccc(OC)c4Cl)c(C)n3)CC1)C2` (atropisomer, axis not shown) [Compound 181], the results for the IC50 in assay [1] and in assay [2] (setting [4]) were 44 nM and 447 nM, respectively.

Turning to `C#Cc1ccc2c(c1)CC1(CCN(c3ncc(Sc4ccnc(N)c4Cl)c4nccn34)CC1)[C@@H]2N` [Compound 1, (S)-1′-(8-((2-amino-3-chloropyridin-4-yl)thio)imidazo[1,2-c]pyrimidin-5-yl)-5-ethynyl-1,3-dihydrospiro[indene-2,4′-piperidin]-1-amine], the values for the IC50 in assay [1] and in assay [2] (setting [3]) were 2 nM and 18 nM, respectively.

Turning to `COCC#Cc1cccc2c1CC1(CCN(c3ncc(Sc4ccnc(N)c4Cl)c4nccn34)CC1)[C@@H]2N` [Compound 97], the IC50 in assay [1] was 2 nM; in assay [2] (setting [3]), 11 nM.

As for `COCC#Cc1ccc2c(c1)[C@@H](N)C1(CCN(c3nc(C)n(-c4cccc(Cl)c4Cl)c(=O)c3F)CC1)C2` [Compound 169], the IC50 in assay [1] amounted to 6 nM; in assay [2] (setting [3]), 125 nM.

As for `C#Cc1ccc2c(c1)[C@@H](N)C1(CCN(c3cc(=O)n(-c4ccc(F)c(OC)c4)c(C)n3)CC1)C2` [Compound 29], the values for the IC50 in assay [1] and in assay [2] (setting [3]) were 25 nM and 489 nM, respectively.

Regarding `Cc1nc(N2CCC3(CC2)Cc2ccc(C#CCO)cc2[C@H]3N)cc(=O)n1-c1cccc(Cl)c1Cl` [Compound 32], the IC50 in assay [1] turned out to be 1 nM; in assay [2] (setting [3]), 6 nM.

As for `C#Cc1ccc2c(c1)CC1(CCN(c3nc(N)c(-c4cn(C)c5ncccc45)c4nccn34)CC1)[C@@H]2N` [Compound 25], the IC50 in assay [1] stood at 12 nM; in assay [2] (setting [3]) it was 151 nM.

On to `C#Cc1ccc2c(c1)[C@@H](N)C1(CCN(c3cc(=O)n(-c4ccccc4Cl)c(C)n3)CC1)C2` (single isomer, unassigned) [Compound 56], for which the IC50 in assay [1] was 2 nM; in assay [2] (setting [4]) it was 85 nM.

With `C#Cc1ccc2c(c1)CC1(CCN(c3cc(=O)n(-c4cccc(Cl)c4)c(C)n3)CC1)[C@@H]2N` [Compound 26], the IC50 is 158 nM in assay [1] and greater than 3000 nM in assay [2] (setting [3]).

Take `CC#Cc1ccc2c(c1)[C@@H](N)C1(CCN(c3cc(=O)n(-c4ccc(F)c(Cl)c4Cl)c(C)n3)CC1)C2` (atropisomer, axis not shown) [Compound 220]: the figures for the IC50 in assay [1] and in assay [2] (setting [4]) were 317 nM and greater than 1000 nM, respectively.

For `CCNC(=O)C#Cc1ccc2c(c1)[C@@H](N)C1(CCN(c3ncc(N4CCCc5ncccc54)nc3C)CC1)C2` [Compound 258], the IC50 in assay [1] was found to be 10 nM; in assay [2] (setting [3]) it was 188 nM.

On to `C#Cc1cc(F)c2c(c1)[C@@H](N)C1(CCN(c3nc(C)n(-c4cccc(Cl)c4Cl)c(=O)c3F)CC1)C2` [Compound 167], for which the IC50 in assay [1] is 25 nM; in assay [2] (setting [3]) it was 124 nM.

`CNC(=O)C#Cc1cc2c(cc1F)CC1(CCN(c3nc(N)c(Sc4ccnc(N)c4Cl)nc3Cl)CC1)[C@@H]2N` [Compound 223]: the IC50 in assay [1] was found to be 4 nM; in assay [2] (setting [3]) it was 23 nM.
